Legend:
Rhyzoctonia solani = test: In vitro growth of R. solani in PD broth, microtitre plate reader; assay type: cell-based; settings: PD broth plus gluconic acid
Protocol: Glucose oxidase was examined in vitro for its ability to inhibit the growth of an Australian isolate of R. solani. Different concentrations of A. niger glucose oxidase suspended in potato dextrose broth and different amounts of filtrate from T. flavus 32908 and GOH-1 were inoculated with R. solani and fungal growth was monitored using a microtitre plate reader. Duplicates were performed for each experiment and the experiment was repeated twice. […] Growth inhibition curves for R. solani were calculated 26 hours after the start of fungal growth (FIG. 5). […] These values are approximately twice the glucose oxidase IC50 value determined for V. dahliae (2.2 μg/ml).

[1] = test system: Verticillium dahliae microsclerotia and mycelia; settings: added to growth media; cited from earlier work
[2] = test system: Talaromyces flavus glucose oxidase, wild type; settings: T. flavus glucose oxidase; read-out: Km for β-D-glucose; cited from earlier work
[3] = biological target: Aspergillus niger glucose oxidase, wild type (Aspergillus niger, UniProt P13006); settings: A. niger glucose oxidase; read-out: Km for β-D-glucose; cited from earlier work
Sequence of Aspergillus niger glucose oxidase, wild type (P13006 17-605): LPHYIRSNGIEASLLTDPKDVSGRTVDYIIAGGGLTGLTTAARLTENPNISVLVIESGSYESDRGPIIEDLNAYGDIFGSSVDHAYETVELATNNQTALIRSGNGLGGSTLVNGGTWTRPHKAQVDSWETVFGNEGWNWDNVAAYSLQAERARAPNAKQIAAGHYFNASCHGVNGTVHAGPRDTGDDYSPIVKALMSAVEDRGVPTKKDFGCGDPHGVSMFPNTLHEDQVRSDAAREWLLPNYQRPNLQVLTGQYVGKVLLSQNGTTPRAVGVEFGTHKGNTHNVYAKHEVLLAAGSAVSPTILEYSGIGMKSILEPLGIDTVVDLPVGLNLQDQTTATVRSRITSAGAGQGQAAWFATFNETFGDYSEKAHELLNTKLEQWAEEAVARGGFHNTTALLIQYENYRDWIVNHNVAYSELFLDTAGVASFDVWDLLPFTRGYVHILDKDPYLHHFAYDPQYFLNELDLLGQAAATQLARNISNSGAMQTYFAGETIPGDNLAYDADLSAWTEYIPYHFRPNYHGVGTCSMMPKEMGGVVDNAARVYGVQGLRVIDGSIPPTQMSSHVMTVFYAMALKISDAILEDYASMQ

SMILES | growth profile of R. solani compared with PD broth alone (Rhyzoctonia solani) | inhibition of microsclerotial germination and mycelial growth [1] | Km [2] [mM] | Km [3] [mM]
O=C(O)[C@H](O)[C@@H](O)[C@H](O)[C@H](O)CO [gluconic acid] | very similar | did not cause inhibition | – | –
O=C[C@H](O)[C@@H](O)[C@H](O)[C@H](O)CO [glucose] | – | did not cause inhibition | – | –
OO [hydrogen peroxide] | – | inhibited microsclerotial germination and mycelial growth | – | –
OC[C@H]1O[C@@H](O)[C@H](O)[C@@H](O)[C@@H]1O [β-D-glucose] | – | – | 10.9 | 27
